Reference: patent US9351971B2, “Substituted 2,2′-biphenazines for treating diseases” (Eutropics Pharmaceuticals, Inc., priority 2010, dated 2016)

Experiments:
[1] = tested on: SUDHL-6 lymphoid cell line; test: Cell viability MTS assay, SUDHL-6; type: cell-based; settings: Homo sapiens, SU-DHL-6, 48 hours, read-out: EC50, cell killing in SUDHL-6
Protocol: (§1) The lymphoid derived cell lines DHL-6 and DHL-10 were obtained from Anthony Letai of the Dana Father Cancer Research Institute, Boston, Mass. The […] derived cell line NCP-H929 was obtained irons, the NIH/NCI cell repository. AML-3 cells were obtained from Dr. Michael Andreef (MD Anderson Cancer Center, Houston, Tex.). Cells were grown in RPMI 1640 medium (GIBCO-BRL) supplemented with Pen-strep-glutamine (Gibco 10378) and 5% fetal bovine serum.
(§2) Cells were expanded in tissue culture in appropriate media and then subcultured into 96-well plates at a seeding density of 20,000-40,000 cells per well, and cells were treated with one or more compounds that were titrated info appropriate medium with FCS. Cell lines were treated with compound A at concentrations ranging from 25 μM to 25 nM. The BH3-mimetic obatoclax (Nguyen M et al. (2007), Proc. Natl. Acad. Sci. USA 104:19512-19517) was also tested against the SUDHL-6, SUDHL-10, and NCI-H929 cell lines. Cells were treated for 48 hours and scored for viability using the MTS assay (Promega). Growth inhibition was indicated as a percentage of control cell growth. Growth was determined by measuring the A570 (control cells)—A570 (treated cells)/A570 (control cells). EC50 values were calculated using Graphpad Prizm software.

[2] = tested on: AML-3 acute myelogenous leukemia cell line; test: Cell viability MTS assay, AML-3; type: cell-based; settings: Homo sapiens, AML3, 48 hours, read-out: EC50, cell killing in AML-3
Protocol: as §1, §2

NCI H929 tumors = test: NCI H929 human myeloma xenograft model in mice; type: in vivo, mouse; settings: vehicle 2300 mm^3
Protocol: Cell Culture: Tumor cell line NCI H929 was cultured according to ATCC recommendations in […] containing 10% fetal bovine serum and pen-strep. On the day of implantation, cells were washed 1× with phosphate buffered saline (PBS) and harvested via centrifugation. Cells were pelleted (5 min at 1000 rpm, RT) then resuspended in serum-free matrigel and kept on ice until implantation.
Tumor Cell Implantation: The cell line was implanted via subcutaneous injection on the right rear flank at a volume of 200 μl containing 3×10^7 cells per mouse; the injection site was cleaned using alcohol before and after injection to prevent any infection.
Tumor Assessment: Beginning 1 week post cell implantation all animals were weighed and tagged and tumors were measured and body weights taken 3 times weekly (length×width×height) on Monday, Wednesday, and Friday for the duration of study. Once an average tumor volume of 100-200 mm^3 was reached, animals were randomized and placed into 4 treatment groups of a minimum of 10 mice per group based on tumor size. Randomization was determined by tumor volume (length×width×height)[…] for all of the mice and average volume was calculated using a average function in Excel (Microsoft Professional).
Treatment: The study involved 4 groups of 10 animals per group. Animals in all dose groups were weighed on days of tumor measurement. All doses were administered i.p. at 10 mL/kg. The Bortezormib (1 mg/kg) group was once every 3 days for 15 days. The mice receiving vehicle and compound II-19 were dosed every second day. Compound II-19 was formulated in 1% DMSO, 10 mM Tris pH 8, 30% hydroxypropyl-beta-cyclodextrin; this vehicle was used as the “vehicle” control. Bortezomib was formulated in 30% propylene glycol, 5% Tween 80, 3.3% dextrose in water, pH 4, 1% DMSO.

[3] = Pharmacokinetics of compound II-19 i.p. in male ICR mice; type: in vivo, mouse; settings: 10 mg/kg
Protocol: FIG. 11 is a graph of the pharmacokinetics of compound II-19 clearance in mouse plasma. Pharmacokinetic profile of Compound II-19 in. male ICR mice is shown. Compound II-19 was dissolved in 5% DMSO, 15% hydroxypropyl-beta-cyclodexmain, and 50 mM Tris in water to yield a nominal concentration of 5 mg/mL. This solution was administered intraperintoncally to […] male ICR mice at a dose of 10 mg/kg. Three mice in each group were used for blood, collection, at each of 8 time points: 5 minutes, 0.25 hrs, 0.5 hrs, 1 hr, 2 hrs, 4 hrs, 8 hrs, and 24 hrs postdose. Plasma samples at these time points were analyzed for the quantity of compound II-19 by standard liquid chromatography/mass spectroscopy methods.
Pharmacokinetic studies were conducted on compound II-19 to assess plasma clearance and distribution in male ICR mice. Compounds were administered i.p. (as in the xenograft study, Example 8) at 10 mg/kg. Blood samples were collected at various time points (pre-injection, 5 min, 15 min, 30 min, 1 h, 2 h, 4 h, 8 h and 24 h), and centrifuged to remove red blood cells. […] Plasma levels of drug were quantified by LC-MS (C18 column elided with linear gradient from 0% acetonitrile, 1% formic acid to 100% acetonitrile, 1% formic acid) against a set of standards prepared by diluting a known quantity of II-19 into mouse plasma.

COC(=O)c1ccc(O)c2nc3c(C=O)c(O)c(-c4c(O)c(C=O)c5nc6c(O)ccc(C(=O)OC)c6nc5c4O)c(O)c3nc12 [II-19, dimethyl 4,4′-diformyl-1,1′,3,3′,6,6′-hexahydroxy-[2,2′-biphenazine]-9,9′-dicarboxylate]
EC50 [1]: 3 µM | EC50 [2]: 10 µM | average tumor size at the end of the study (NCI H929 tumors; 1 mg/kg i.p. every second day): 1740 mm^3 | average tumor size at the end of the study (NCI H929 tumors; 3 mg/kg i.p. every second day): 1600 mm^3 | time for which circulating drug levels can be sustained [3]: > 24 h | half-life ([3]; mouse, plasma, ip): > 20 h
